{"source": "patent US9434925B2", "about": "“Genetically modified mesenchymal stem cell that express an exogenous cytotoxic protein” (APCETH GMBH & CO. KG, priority 2009, dated 2016)", "test_system": "human MSCs carrying pLenti6 TK RANTES (HSV tk under RANTES promoter)", "assay": "Specific cell death of induced genetically modified MSCs after ganciclovir treatment", "format": "cell-based", "conditions": "9 days TNFα (10 ng/ml) and IFNγ (10 ng/ml), then 3 days 100 μM ganciclovir", "experimental": "Human MSCs were incubated over night with replication deficient lentiviruses carrying the vector pLenti6 TK RANTES harboring the HSV tk gene under the control of the RANTES promoter and the blasticidin resistance gene under the control of the SV40 promoter (multiplicity of infection (MOI): 10) (see FIG. 8).\nAfter overnight incubation the virus containing media was removed and replaced with fresh media. The next day blasticidin (6 μg/ml) was added to the cells to select for genetically modified MSCs. Culture media, including blasticidin was changed every 3 to 4 days for a minimum of 6 days.\nGenetically modified cells (50000 cells in per 6 well) that were generated as described above were treated for 9 days with TNFα (10 ng/ml) and IFNγ (10 ng/ml) with addition of fresh cytokines every 3 days. Subsequently the cells were incubated for 3 days with 100 μM ganciclovir.", "data": [{"smiles": "Nc1nc(O)c2ncn(COC(CO)CO)c2n1", "note": "[ganciclovir]", "values": [{"measurement": "survival of genetically modified MSCs", "value": "not surviving"}]}]}
